Assay results reported in US11591323B2, “Muscarinic agonists as non-steroidal and non-opioid analgesics and methods of use thereof” (Barry University, priority 2019, dated 2023).

Target: T1, M4 muscarinic receptor (Homo sapiens, UniProt P08173)
T1 sequence (P08173 1-479): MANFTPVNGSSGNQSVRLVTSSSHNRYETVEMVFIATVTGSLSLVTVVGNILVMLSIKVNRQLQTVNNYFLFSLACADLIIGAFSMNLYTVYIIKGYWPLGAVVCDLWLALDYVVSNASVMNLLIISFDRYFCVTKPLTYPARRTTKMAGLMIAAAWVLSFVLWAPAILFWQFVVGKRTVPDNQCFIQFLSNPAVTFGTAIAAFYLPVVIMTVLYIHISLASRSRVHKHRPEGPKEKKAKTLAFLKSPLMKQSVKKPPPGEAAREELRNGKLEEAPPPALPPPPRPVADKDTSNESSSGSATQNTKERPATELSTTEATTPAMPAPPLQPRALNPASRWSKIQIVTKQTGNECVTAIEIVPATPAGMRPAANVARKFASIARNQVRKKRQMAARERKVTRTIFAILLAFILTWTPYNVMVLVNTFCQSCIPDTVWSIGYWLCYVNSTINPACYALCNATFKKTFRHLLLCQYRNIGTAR
Experiment: accumulation of IPX, M4 CHO cells (M4Gq)
Format: cell-based
Set-up: host or cells: CHO cells, stably transfected
Conditions: for RAi / E′MAX / τ / Δlog(τ/KA): M4Gq (↑IPX); for RAi: Table 8, relative to carbachol; for E′MAX / τ: Table 8; for Δlog(τ/KA): Table 8, to carbachol
Method: To determine level of cAMP, cells in suspension were pre-incubated for 1 h with 0.4 μM [^3H]adenine, washed, and incubated for 10 min in the presence of isobutylmethylxanthine and 10 μM forskolin. […] Incubation was ended by addition of 0.2 ml of 2.5 M HCl to the samples. Samples were applied to alumina columns (1.5 g of alumina per column), washed with 2 ml ammonium acetate (pH=7.0) and eluted from columns with 4 ml ammonium acetate and measured by liquid scintillation spectrometry. […] The incubation was stopped by addition of 0.5 ml of chloroform methanol HCl mixture (2:1:0.1). After separation of water and organic phases, 0.6 ml of water phase was applied to Dowex columns (1.5 g of Dowex per column), washed by 20 ml of 60 mM ammonium formate/5 mM sodium borate buffer and eluted from columns with 4 ml of 1M ammonium formate/0.1 formic acid buffer and measured by liquid scintillation spectrometry.
Measurements of the production of cAMP and inositol phosphates: Levels of second messengers cAMP and inositol phosphates were determined in radiochemical chromatography assays as described previously. To determine level of cAMP, cells in suspension were pre-incubated for 1 h with 0.4 μM [^3H]adenine, washed, and incubated for 10 min in the presence of isobutylmethylxanthine and 10 μM forskolin. […] Incubation was ended by addition of 0.2 ml of 2.5 M HCl to the samples. Samples were applied to alumina columns (1.5 g of alumina per column), washed with 2 ml ammonium acetate (pH=7.0) and eluted from columns with 4 ml ammonium acetate and measured by liquid scintillation spectrometry. […] For this purpose, new CHO cell lines stably expressing promiscuous G15 G-protein and M2 or M4 receptor were generated by transfection with pCMV/hygro vector and hygromycin selection. To determine the rate of formation of inositol phosphates IPX, suspended cells were pre-incubated with 0.1 μM [^3H]myo-inositol for 60 min, washed, and incubated with 10 mM LiCl for 15 min. […] The incubation was stopped by addition of 0.5 ml of chloroform methanol HCl mixture (2:1:0.1). After separation of water and organic phases, 0.6 ml of water phase was applied to Dowex columns (1.5 g of Dowex per column), washed by 20 ml of 60 mM ammonium formate/5 mM sodium borate buffer and eluted from columns with 4 ml of 1M ammonium formate/0.1 formic acid buffer and measured by liquid scintillation spectrometry.
For bi-phasic response, curves were inhibitory and stimulatory phase were fitted separately. Operational Model of Functional Agonism
[formula] where y is functional response at concentration of tested compound x, EMAX is maximal response of the system, KA is equilibrium dissociation constant and nH is slope factor. Eq. 5 was fitted to data from functional experiments. Eq. 5 was fitted to data by the two-step procedure described earlier. […] In the second step, Eq. 5 with EMAX fixed to the value determined in the first step was fitted to individual experimental data sets. Relative Intrinsic Activity

C[N+]1(Cc2cccs2)CC=CCC1.[I-] (centres unmarked) [Compound 7A, 1-methyl-1-[(thiophen-2-yl)methyl]-1,2,3,6-tetrahydropyridin-1-ium iodide]
RAi: 0

O=C1CCCN1CC#CCN1CCCC1 [oxotremorine, reference compound]
EC50: 162 nM | Kd: 200 nM | E′MAX: 1.58 ± 0.04 fold over basal | τ: 0.17 ± 0.02 | RAi: 4.69 ± 0.17 | Δlog(τ/KA): −0.67 ± 0.06

C[N+](C)(C)CCOC(N)=O [carbachol, reference compound]
E′MAX: 1.78 ± 0.05 fold over basal | τ: 0.24 ± 0.03 | Δlog(τ/KA): 0

C1=CCN(Cc2cccs2)CC1.Cl [Compound 6A, 1-[(thiophen-2-yl)methyl]-1,2,3,6-tetrahydropyridin-1-ium chloride]
RAi: 0
